# Test results: patent US20230381192A1, “METHODS FOR CONTROLLING AND PREDICTING RECOVERY AFTER NMBA ADMINISTRATION” (Cornell University, priority 2020, published 2023)
# Like-named read-outs stand apart in the source and are kept apart here.
# Assay: Phase I pharmacokinetics after single IV bolus
# Type: in vivo
# Settings: both sexes, human
# Protocol: (Abstract available in the final supplement of the Journal of Anesthesia and Analgesia, May 2020 (Volume 30, Issue pages 73-74), which is incorporated herein by reference. Healthy volunteers (n=34) aged 18 to 55 of either gender gave informed consent to an 1RB-approved Phase I protocol, NMB was measured by mechanomyography during sevoflurane (0.5 MAC)/N20 (70%) anesthesia. Each volunteer received a single IV bolus of RP1000,
compound,measurement,setting,value
COc1ccc(C[C@@H]2c3cc(OC)c(OC)cc3CC[N@@+]2(C)CCCOC(=O)/C=C/C(=O)OCCC[N@+]2(C)CCc3cc(OC)c(OC)cc3[C@H]2Cc2ccc(OC)c(OC)c2)cc1OC.[Cl-].[Cl-] [RP1000],half-life,"in vivo, intravenous, all dosage groups, read-out: half-life of elimination",25 to 26 min
same,AUC(0-t),"plasma, iv, 0.04 mg/kg, single IV bolus 0.04 mg/kg (n = 6), read-out: AUClast, Geometric Mean (converted)",132 ng·h/mL
same,AUC(0-t),"plasma, iv, 0.04 mg/kg, single IV bolus 0.04 mg/kg (n = 6), read-out: AUClast, Mean (converted)",6.35 ng·h/mL
same,clearance,"plasma, iv, 0.04 mg/kg, single IV bolus 0.04 mg/kg (n = 6), read-out: CL (clearance), Geometric Mean",387 mL/min
same,clearance,"plasma, iv, 0.04 mg/kg, single IV bolus 0.04 mg/kg (n = 6), read-out: CL (clearance), Mean (SD)",400 mL/min
same,Cmax,"plasma, iv, 0.04 mg/kg, single IV bolus 0.04 mg/kg (n = 6), read-out: Cmax, Geometric Mean",2360 ng/mL
same,Cmax,"plasma, iv, 0.04 mg/kg, single IV bolus 0.04 mg/kg (n = 6), read-out: Cmax, Mean",2540 ng/mL
same,Vd,"plasma, iv, 0.04 mg/kg, single IV bolus 0.04 mg/kg (n = 6), read-out: Vss (volume at steady state), Geometric Mean",9.33 L
same,Vd,"plasma, iv, 0.04 mg/kg, single IV bolus 0.04 mg/kg (n = 6), read-out: Vss (volume at steady state), Mean",9.54 L
same,half-life,"plasma, iv, 0.04 mg/kg, single IV bolus 0.04 mg/kg (n = 6), read-out: t1/2 (terminal elimination half-life), Geometric Mean",27.4 min
same,half-life,"plasma, iv, 0.04 mg/kg, single IV bolus 0.04 mg/kg (n = 6), read-out: t1/2 (terminal elimination half-life), Mean (SD)",29 min
same,AUC(0-t),"plasma, iv, 0.06 mg/kg, single IV bolus 0.06 mg/kg (n = 6), read-out: AUClast, Geometric Mean (converted)",160 ng·h/mL
same,AUC(0-t),"plasma, iv, 0.06 mg/kg, single IV bolus 0.06 mg/kg (n = 6), read-out: AUClast, Mean (converted)",153 ng·h/mL
same,clearance,"plasma, iv, 0.06 mg/kg, single IV bolus 0.06 mg/kg (n = 6), read-out: CL (clearance), Geometric Mean",399 mL/min
same,clearance,"plasma, iv, 0.06 mg/kg, single IV bolus 0.06 mg/kg (n = 6), read-out: CL (clearance), Mean (SD)",409 mL/min
same,Cmax,"plasma, iv, 0.06 mg/kg, single IV bolus 0.06 mg/kg (n = 6), read-out: Cmax, Geometric Mean",2600 ng/mL
same,Cmax,"plasma, iv, 0.06 mg/kg, single IV bolus 0.06 mg/kg (n = 6), read-out: Cmax, Mean",3070 ng/mL
same,Vd,"plasma, iv, 0.06 mg/kg, single IV bolus 0.06 mg/kg (n = 6), read-out: Vss (volume at steady state), Geometric Mean",8.8 L
same,Vd,"plasma, iv, 0.06 mg/kg, single IV bolus 0.06 mg/kg (n = 6), read-out: Vss (volume at steady state), Mean",8.92 L
same,half-life,"plasma, iv, 0.06 mg/kg, single IV bolus 0.06 mg/kg (n = 6), read-out: t1/2 (terminal elimination half-life), Geometric Mean",26.3 min
same,half-life,"plasma, iv, 0.06 mg/kg, single IV bolus 0.06 mg/kg (n = 6), read-out: t1/2 (terminal elimination half-life), Mean (SD)",26 min
same,AUC(0-t),"plasma, iv, 0.08 mg/kg, single IV bolus 0.08 mg/kg (n = 6), read-out: AUClast, Geometric Mean (converted)",248 ng·h/mL
same,AUC(0-t),"plasma, iv, 0.08 mg/kg, single IV bolus 0.08 mg/kg (n = 6), read-out: AUClast, Mean (converted)",235 ng·h/mL
same,clearance,"plasma, iv, 0.08 mg/kg, single IV bolus 0.08 mg/kg (n = 6), read-out: CL (clearance), Geometric Mean",387 mL/min
same,clearance,"plasma, iv, 0.08 mg/kg, single IV bolus 0.08 mg/kg (n = 6), read-out: CL (clearance), Mean (SD)",390 mL/min
same,Cmax,"plasma, iv, 0.08 mg/kg, single IV bolus 0.08 mg/kg (n = 6), read-out: Cmax, Geometric Mean",3610 ng/mL
same,Cmax,"plasma, iv, 0.08 mg/kg, single IV bolus 0.08 mg/kg (n = 6), read-out: Cmax, Mean",4040 ng/mL
same,Vd,"plasma, iv, 0.08 mg/kg, single IV bolus 0.08 mg/kg (n = 6), read-out: Vss (volume at steady state), Geometric Mean",9.58 L
same,Vd,"plasma, iv, 0.08 mg/kg, single IV bolus 0.08 mg/kg (n = 6), read-out: Vss (volume at steady state), Mean",9.65 L
same,half-life,"plasma, iv, 0.08 mg/kg, single IV bolus 0.08 mg/kg (n = 6), read-out: t1/2 (terminal elimination half-life), Geometric Mean",27 min
same,half-life,"plasma, iv, 0.08 mg/kg, single IV bolus 0.08 mg/kg (n = 6), read-out: t1/2 (terminal elimination half-life), Mean (SD)",27 min
same,AUC(0-t),"plasma, iv, 0.1 mg/kg, single IV bolus 0.10 mg/kg (n = 6), read-out: AUClast, Geometric Mean (converted)",303 ng·h/mL
same,AUC(0-t),"plasma, iv, 0.1 mg/kg, single IV bolus 0.10 mg/kg (n = 6), read-out: AUClast, Mean (converted)",291 ng·h/mL
same,clearance,"plasma, iv, 0.1 mg/kg, single IV bolus 0.10 mg/kg (n = 6), read-out: CL (clearance), Geometric Mean",438 mL/min
same,clearance,"plasma, iv, 0.1 mg/kg, single IV bolus 0.10 mg/kg (n = 6), read-out: CL (clearance), Mean (SD)",443 mL/min
same,Cmax,"plasma, iv, 0.1 mg/kg, single IV bolus 0.10 mg/kg (n = 6), read-out: Cmax, Geometric Mean",5020 ng/mL
same,Cmax,"plasma, iv, 0.1 mg/kg, single IV bolus 0.10 mg/kg (n = 6), read-out: Cmax, Mean",5270 ng/mL
same,Vd,"plasma, iv, 0.1 mg/kg, single IV bolus 0.10 mg/kg (n = 6), read-out: Vss (volume at steady state), Geometric Mean",9.02 L
same,Vd,"plasma, iv, 0.1 mg/kg, single IV bolus 0.10 mg/kg (n = 6), read-out: Vss (volume at steady state), Mean",9.12 L
same,half-life,"plasma, iv, 0.1 mg/kg, single IV bolus 0.10 mg/kg (n = 6), read-out: t1/2 (terminal elimination half-life), Geometric Mean",23.9 min
same,half-life,"plasma, iv, 0.1 mg/kg, single IV bolus 0.10 mg/kg (n = 6), read-out: t1/2 (terminal elimination half-life), Mean (SD)",24 min
same,AUC(0-t),"plasma, iv, 0.14 mg/kg, single IV bolus 0.14 mg/kg (n = 4), read-out: AUClast, Geometric Mean (converted)",507 ng·h/mL
same,AUC(0-t),"plasma, iv, 0.14 mg/kg, single IV bolus 0.14 mg/kg (n = 4), read-out: AUClast, Mean (converted)",481 ng·h/mL
same,clearance,"plasma, iv, 0.14 mg/kg, single IV bolus 0.14 mg/kg (n = 4), read-out: CL (clearance), Geometric Mean",366 mL/min
same,clearance,"plasma, iv, 0.14 mg/kg, single IV bolus 0.14 mg/kg (n = 4), read-out: CL (clearance), Mean (SD)",368 mL/min
same,Cmax,"plasma, iv, 0.14 mg/kg, single IV bolus 0.14 mg/kg (n = 4), read-out: Cmax, Geometric Mean",9120 ng/mL
same,Cmax,"plasma, iv, 0.14 mg/kg, single IV bolus 0.14 mg/kg (n = 4), read-out: Cmax, Mean",10300 ng/mL
same,Vd,"plasma, iv, 0.14 mg/kg, single IV bolus 0.14 mg/kg (n = 4), read-out: Vss (volume at steady state), Geometric Mean",7.84 L
same,Vd,"plasma, iv, 0.14 mg/kg, single IV bolus 0.14 mg/kg (n = 4), read-out: Vss (volume at steady state), Mean",7.96 L
same,half-life,"plasma, iv, 0.14 mg/kg, single IV bolus 0.14 mg/kg (n = 4), read-out: t1/2 (terminal elimination half-life), Geometric Mean",24.8 min
same,half-life,"plasma, iv, 0.14 mg/kg, single IV bolus 0.14 mg/kg (n = 4), read-out: t1/2 (terminal elimination half-life), Mean (SD)",25 min
